Holding throughout (format): biochemical
In one test the target is JNK3 (Homo sapiens, UniProt P53779). The test is described as follows: JNK3 SPA assay. Conditions: phosphorylation of GST-c-Jun, 3.33 μM ATP. As for the experimental part:
(§1) JNK1, JNK2, JNK3—SPA Assay
(§2) • 1. Compound is dissolved in DMSO to a convenient concentration and this is diluted in 10% DMSO to a five times concentrate of the desired starting concentration (frequently 1:100). • 2. 10 μl of 500 mM EDTA is added to alternative wells of the Opti-plate row, which will receive kinase reaction plus DMSO. This creates the negative control. • 3. For the JNK2 and JNK3 assay, compounds are prepared in six 2-fold dilutions with water and each concentration is tested in duplicate. For the JNK1 assay compounds are prepared in four 5-fold dilutions with water which are tested in triplicate. Controls are treated identically. • 4. 20 μl per well of each compound concentration is transferred to an Opti-plate, in duplicate. • 5. 30 μl (JNK2/3 SPA) or 50 μl (JNK1 SPA) of substrate solution (25 mM HEPES pH 7.5, 10 mM magnesium acetate with 3.33 μM ATP (JNK2/3) or 2 μM ATP (JNK1), approximately 7.5 kBq [γ-^33P] ATp, GST-c-Jun, in water) is added to each well. • 6. 50 μl (JNK2/3 SPA) or 30 μl (JNK1 SPA) of kinase solution (JNK in 25 mM HEPES pH 7.5, 10 mM Mg Acetate) is added to each well.
(§3) • 7. The plate is incubated for 30 minutes at room temperature. • 8. 100 μl of bead/stop solution is added to each well (5 mg/ml glutathione-PVT-SPA beads, 40 mM ATP in PBS). • 9. Plates are sealed and incubated for 30 minutes at room temperature, centrifuged for 10 minutes at 2500 g and counted. • 10. The IC50 values are calculated as the concentration of the compound being tested at which the phosphorylation of c-Jun is decreased to 50% of the control value.

The target in another test is JNK2 (Homo sapiens, UniProt P45984). The test is described as follows: JNK2 SPA assay. The note with it: phosphorylation of GST-c-Jun, 3.33 μM ATP. As for the experimental part:
as §1, §2, §3

The next test addresses T1, p38 MAP kinase (Homo sapiens, UniProt Q16539).
T1 construct: purchased Upstate
The test is described as follows: p38 ELISA. Conditions: phosphorylation of GST-ATF2, 50 μM ATP. The method, then: Active p38 kinase (100 ng; Upstate) was added to 2 μg GST-ATF2 substrate (NEB) in 250 mM Hepes pH 7.5/100 mM MgAc/50 μM ATP (final) in the presence or absence of compounds in 50 μl. The mixture was incubated at 30° C. for 1 hour, and then diluted with 200 μl PBS-Tween (0.05%). From this, duplicate volumes of 100 μl were added to a Reacti-Bind glutathione coated plate (Pierce) and incubated for 1 hour. After washing 3 times with PBS-Tween (0.05%), rabbit anti-phospho-ATF2 (Thr71) antibody (NEB) was added at 1:500, and incubated for another hour at room temperature. After 3 additional washes with PBS-Tween (0.05%), […] anti-rabbit IgG alkaline phosphatase-conjugated secondary antibody (Sigma) was added at 1:1000, the reaction was incubated for a further hour, washed 3 times, and then phosphatase substrate (Sigma) was added (100 μl per well; 3 tablets in 5 ml water). After incubation in the dark at 37° C. for 1 hour, the reaction mixture was transferred to a clear 96 well plate, and the absorbance at 405 nm was read.
The IC50 values are calculated as the concentration of the compound being tested at which the phosphorylation of ATF2 is decreased to 50% of the control value.
(In an ELISA, binding on a coated surface is turned into a signal by an enzyme label.)

The target in a further test is JNK1 (Homo sapiens, UniProt P45983). As to the kind of experiment: JNK1 SPA assay. The note with it: phosphorylation of GST-c-Jun, 2 μM ATP. The method, then:
as §1, §2, §3

Each structure is given as a SMILES string.

JNK3, sequence (P53779 whole entry): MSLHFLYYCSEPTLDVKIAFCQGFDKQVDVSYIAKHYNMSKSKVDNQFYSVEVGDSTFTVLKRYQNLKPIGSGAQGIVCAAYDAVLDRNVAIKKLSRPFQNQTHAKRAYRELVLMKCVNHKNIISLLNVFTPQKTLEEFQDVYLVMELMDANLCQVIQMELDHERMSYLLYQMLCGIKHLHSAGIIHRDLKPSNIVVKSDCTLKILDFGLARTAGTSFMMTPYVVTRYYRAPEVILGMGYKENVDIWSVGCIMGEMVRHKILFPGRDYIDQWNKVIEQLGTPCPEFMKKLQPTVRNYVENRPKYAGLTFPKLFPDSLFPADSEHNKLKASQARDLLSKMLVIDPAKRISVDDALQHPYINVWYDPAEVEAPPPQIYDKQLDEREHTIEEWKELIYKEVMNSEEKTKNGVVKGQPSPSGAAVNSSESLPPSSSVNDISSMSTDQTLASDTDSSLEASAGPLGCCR
JNK2, sequence (P45984 whole entry): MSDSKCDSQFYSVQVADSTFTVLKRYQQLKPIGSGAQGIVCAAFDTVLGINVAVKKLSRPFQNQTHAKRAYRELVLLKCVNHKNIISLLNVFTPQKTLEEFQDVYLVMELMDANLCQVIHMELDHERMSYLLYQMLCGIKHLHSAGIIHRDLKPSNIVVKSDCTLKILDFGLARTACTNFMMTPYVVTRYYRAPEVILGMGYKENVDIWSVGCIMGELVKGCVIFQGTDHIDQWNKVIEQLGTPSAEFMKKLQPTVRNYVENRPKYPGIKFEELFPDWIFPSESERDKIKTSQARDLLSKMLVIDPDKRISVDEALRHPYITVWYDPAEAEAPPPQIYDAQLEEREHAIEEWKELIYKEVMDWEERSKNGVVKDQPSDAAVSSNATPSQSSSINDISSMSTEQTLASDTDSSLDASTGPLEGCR
T1 sequence (Q16539 whole entry): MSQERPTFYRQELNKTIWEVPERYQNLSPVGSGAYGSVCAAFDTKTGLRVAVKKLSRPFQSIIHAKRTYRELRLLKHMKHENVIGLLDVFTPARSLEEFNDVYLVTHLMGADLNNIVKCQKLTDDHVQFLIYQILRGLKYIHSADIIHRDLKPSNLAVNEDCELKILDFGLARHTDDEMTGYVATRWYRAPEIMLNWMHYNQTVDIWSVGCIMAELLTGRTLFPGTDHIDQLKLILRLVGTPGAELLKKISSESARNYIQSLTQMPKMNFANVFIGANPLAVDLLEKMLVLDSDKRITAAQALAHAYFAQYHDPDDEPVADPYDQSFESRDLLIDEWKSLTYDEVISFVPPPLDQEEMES
JNK1, sequence (P45983 whole entry): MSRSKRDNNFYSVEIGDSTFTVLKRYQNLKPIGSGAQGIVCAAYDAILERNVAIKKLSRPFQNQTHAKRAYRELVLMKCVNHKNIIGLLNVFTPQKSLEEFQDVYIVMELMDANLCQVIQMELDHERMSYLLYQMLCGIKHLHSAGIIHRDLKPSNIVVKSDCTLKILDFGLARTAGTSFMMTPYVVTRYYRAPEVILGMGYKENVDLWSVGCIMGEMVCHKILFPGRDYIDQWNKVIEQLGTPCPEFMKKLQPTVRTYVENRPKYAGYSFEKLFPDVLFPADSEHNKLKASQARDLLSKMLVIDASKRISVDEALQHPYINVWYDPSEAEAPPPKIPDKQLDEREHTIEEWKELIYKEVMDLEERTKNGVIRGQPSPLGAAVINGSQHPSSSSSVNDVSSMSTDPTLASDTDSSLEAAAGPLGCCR

With `c1ccc(Oc2ccccc2-c2cnc3[nH]cc(-c4ccccc4)c3c2)cc1`, the half-inhibitory concentration (IC50) (as a rule, the concentration needed to halve the response being measured) against JNK3 is below 500 nM.

`CN(C)c1ccc(-c2cnc3[nH]cc(-c4ccoc4)c3c2)cc1`: the IC50 is below 500 nM on JNK2, below 500 nM against JNK3, above 10000 nM against p38 MAP kinase and below 500 nM at JNK1.

In the case of `CN(C)c1ccc(-c2cnc3[nH]cc(-c4cc[nH]c4)c3c2)cc1`, the IC50 against JNK3 is below 500 nM.

`Fc1cccc(-c2c[nH]c3ncc(-c4ccccc4Oc4ccccc4)cc23)c1`: the IC50 against JNK3 is below 500 nM.

With `c1csc(-c2cnc3[nH]cc(-c4cncs4)c3c2)c1`, the concentration for half-maximal inhibition (IC50) is below 500 nM against JNK2, below 500 nM at JNK3, above 10000 nM against p38 MAP kinase and below 500 nM on JNK1.

As for `c1csc(-c2cnc3[nH]cc(-c4ccoc4)c3c2)c1`, the IC50 was below 500 nM against JNK2, below 500 nM against JNK3, above 10000 nM against p38 MAP kinase and below 500 nM against JNK1.
